How the values were obtained:
rice = assay: Test Example 2: soil surface treatment, upland pot test; assay type: in vivo, Oryza sativa L.; settings: observed 20th to 28th day
In short: (§1)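 Visual growth-control ratings, from 0 (like the non-treated plot) to 100 (total kill), were made between days 20 and 28 after a soil-surface spray. The compound, formulated as wettable powder or emulsifiable concentrate and diluted at 1,500 L/ha, went on one day post-sowing in upland-soil pots of 1/170,000 ha.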

wheat = assay: as above; assay type: in vivo, Triticum spp.; settings: observed 20th to 28th day
Source text: Upland field soil was put into a 1/170,000 ha pot, and seed of various plants (barnyardgrass, crabgrass, green foxtail, redroot pigweed, prickly sida, velvetleaf, rice, wheat, corn, soybean) were sown. On the 1st day after the sowing, a wettable powder or emulsifiable concentrate having the compound of the present invention formulated in accordance with a usual formulation method, was weighed so that the active ingredient would be a predetermined amount, and diluted with water in an amount of 1,500 L/ha. The herbicide thus adjusted was applied by a small size sprayer for soil surface treatment. On the 20th to 28th days after the application of the herbicide, the growth of the respective plants was visually observed, and the herbicidal effects were evaluated by the growth controlling degrees (%) ranging from 0 (equivalent to the non-treated plot) to 100 (complete kill), whereby the results shown in Table 4, were obtained.

velvetleaf = assay: as above; assay type: in vivo, Abutilon theophrasti MEDIC.; settings: observed 20th to 28th day
In short: as §1

corn = assay: as above; assay type: in vivo, Zea mays L.; settings: observed 20th to 28th day
In short: as §1

redroot pigweed = assay: as above; assay type: in vivo, Amaranthus retroflexus L.; settings: observed 20th to 28th day
In short: as §1

barnyardgrass [1] = assay: as above; assay type: in vivo, Echinochloa crus-galli L.; settings: observed 20th to 28th day
In short: as §1

japanese ribbon wapato = assay: Test Example 3: paddy pot test, application under submerged conditions; assay type: in vivo, Sagittaria pygniaea; settings: submerged application at primary leaf stage, visually observed 14 days after application, 0 = non-treated, 100 = complete kill
In short: (§2)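 Seeds were sown in flooded paddy soil (0.5–1 cm water), wapato tubers were planted 1–2 days later, and water was then held at 3–4 cm. Diluted wettable powder or emulsifiable concentrate was pipetted into the water at the 0.5 leaf or primary leaf stage. Growth control was visually scored at 14 days (0–100%).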

green foxtail = assay: Test Example 2: soil surface treatment, upland pot test; assay type: in vivo, Setaria viridis L.; settings: observed 20th to 28th day
In short: as §1

prickly sida = assay: as above; assay type: in vivo, Sida spinosa L.; settings: observed 20th to 28th day
In short: as §1

japanese bulrush = assay: Test Example 3: paddy pot test, application under submerged conditions; assay type: in vivo, Scirpus juncoides; settings: submerged application at 0.5 leaf stage, visually observed 14 days after application, 0 = non-treated, 100 = complete kill
In short: as §2

rice (var. Nihonbare) = assay: Test Example 3: paddy pot test, transplanted rice; assay type: in vivo, Oryza sativa L.; settings: applied 4th day after transplantation, visually observed 21st day after application, 0 = non-treated, 100 = complete kill
In short: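 Rice (2-leaf stage) was transplanted 3 cm deep into puddled, leveled paddy soil under 3–4 cm flooding. On day 4 after transplanting, diluted wettable powder or emulsifiable concentrate was pipetted onto the water at a predetermined active-ingredient dose. Growth control (0 = untreated, 100 = complete kill) was scored visually 21 days later.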

soybean = assay: Test Example 2: soil surface treatment, upland pot test; assay type: in vivo, Glycine max Merr.; settings: observed 20th to 28th day
In short: as §1

barnyardgrass [2] = assay: Test Example 3: paddy pot test, application under submerged conditions; assay type: in vivo, Echinochloa crus-galli L.; settings: submerged application at 0.5 leaf stage, visually observed 14 days after application, 0 = non-treated, 100 = complete kill
In short: as §2

crabgrass = assay: Test Example 2: soil surface treatment, upland pot test; assay type: in vivo, Digitaria sanguinalis L.; settings: observed 20th to 28th day
In short: as §1

[3] = active ingredient 1000 g/ha, 0 = non-treated, 100 = complete kill

Compound | Growth controlling degree (%) Rice (rice; active ingredient 1000 g/ha) | Growth controlling degree (%) wheat (wheat; active ingredient 1000 g/ha) | Growth controlling degree (%) Velvetleaf (velvetleaf; active ingredient 1000 g/ha) | Growth controlling degree (%) Corn (corn; active ingredient 1000 g/ha) | Growth controlling degree (%) Redroot pigweed (redroot pigweed; active ingredient 1000 g/ha) | Growth controlling degree (%) Barnyardgrass (barnyardgrass [1]; [3]) | Growth controlling degree (%) Green foxtail (green foxtail; active ingredient 1000 g/ha) | Growth controlling degree (%) Prickly sida (prickly sida; active ingredient 1000 g/ha) | Growth controlling degree (%) Soyabean (soybean; active ingredient 1000 g/ha) | Growth controlling degree (%) Crabgrass (crabgrass; active ingredient 1000 g/ha) | Growth controlling degree (%) Japanese ribbon wapato (japanese ribbon wapato; active ingredient 500 g/ha) | Growth controlling degree (%) Japanese bulrush (japanese bulrush; active ingredient 500 g/ha) | Growth controlling degree (%) Rice (rice (var. Nihonbare); active ingredient 500 g/ha) | Growth controlling degree (%) Barnyardgrass (barnyardgrass [2]; active ingredient 500 g/ha) | other results
CC(C)C(NC(=O)Cc1ccccc1)c1cnccc1C(F)(F)F (stereo not shown) [Compound I-3] | 10% | 0% | 0% | 0% | 20% | 0% | 90% | 10% | 0% | 90% |  |  |  |  | Growth controlling degree (%) Japanese ribbon wapato (japanese ribbon wapato; active ingredient 1000 g/ha): 30%; Growth controlling degree (%) Japanese bulrush (japanese bulrush; active ingredient 1000 g/ha): 98%; Growth controlling degree (%) Rice (rice (var. Nihonbare); active ingredient 1000 g/ha): 20%; Growth controlling degree (%) Barnyardgrass (barnyardgrass [2]; active ingredient 1000 g/ha): 90%
CC(C)C(NC(=O)Cc1c(F)cccc1F)c1cnccc1C(F)(F)F (stereo not shown) [Compound I-5] | 10% | 10% | 0% | 20% | 0% | 30% | 70% | 0% | 10% | 90% | 50% | 90% | 20% | 60% | 
CC(C)C(NC(=O)Cc1ccc(Br)cc1)c1cnccc1C(F)(F)F (stereo not shown) [Compound I-8] | 10% | 30% | 0% | 10% | 80% | 50% | 50% | 50% | 30% | 50% | 10% | 90% | 0% | 90% | 
CC(C(=O)NC(c1cnccc1C(F)(F)F)C(C)C)c1ccccc1 (stereo not shown) [Compound I-11] | 0% | 50% | 0% | 10% | 0% | 98% | 90% | 0% | 0% | 90% | 30% | 90% | 10% | 60% | 
CCC(=O)NC(c1cnccc1C(F)(F)F)c1cccc2ccccc12 (stereo not shown) [Compound I-42] | 0% | 30% | 0% | 10% | 0% | 70% | 90% | 0% | 0% | 90% | 10% | 95% | 30% | 70% | 
COC(=O)NC(c1cnccc1C(F)(F)F)c1cccc2ccccc12 (stereo not shown) [Compound I-45] | 50% | 30% | 40% | 20% | 40% | 0% | 60% | 40% | 0% | 90% | 60% | 90% | 30% | 85% | 
CN(C(=O)Cc1ccccc1)C(c1cnccc1C(F)(F)F)c1cccc2ccccc12 (stereo not shown) [Compound I-47] |  |  |  |  |  |  |  |  |  |  | 0% | 30% | 10% | 98% | Growth controlling degree (%) Rice (rice; active ingredient 2000 g/ha): 0%; Growth controlling degree (%) wheat (wheat; active ingredient 2000 g/ha): 20%; Growth controlling degree (%) Velvetleaf (velvetleaf; active ingredient 2000 g/ha): 20%; Growth controlling degree (%) Corn (corn; active ingredient 2000 g/ha): 10%; Growth controlling degree (%) Redroot pigweed (redroot pigweed; active ingredient 2000 g/ha): 0%; Growth controlling degree (%) Barnyardgrass (barnyardgrass [1]; active ingredient 2000 g/ha): 60%; Growth controlling degree (%) Green foxtail (green foxtail; active ingredient 2000 g/ha): 80%; Growth controlling degree (%) Prickly sida (prickly sida; active ingredient 2000 g/ha): 40%; Growth controlling degree (%) Soyabean (soybean; active ingredient 2000 g/ha): 10%; Growth controlling degree (%) Crabgrass (crabgrass; active ingredient 2000 g/ha): 90%
CN(C(=O)Cc1cccs1)C(c1cnccc1C(F)(F)F)c1cccc2ccccc12 (stereo not shown) [Compound I-48] |  |  |  |  |  |  |  |  |  |  | 0% | 30% | 10% | 100% | Growth controlling degree (%) Rice (rice; active ingredient 2000 g/ha): 20%; Growth controlling degree (%) wheat (wheat; active ingredient 2000 g/ha): 30%; Growth controlling degree (%) Velvetleaf (velvetleaf; active ingredient 2000 g/ha): 40%; Growth controlling degree (%) Corn (corn; active ingredient 2000 g/ha): 10%; Growth controlling degree (%) Redroot pigweed (redroot pigweed; active ingredient 2000 g/ha): 30%; Growth controlling degree (%) Barnyardgrass (barnyardgrass [1]; active ingredient 2000 g/ha): 20%; Growth controlling degree (%) Green foxtail (green foxtail; active ingredient 2000 g/ha): 100%; Growth controlling degree (%) Prickly sida (prickly sida; active ingredient 2000 g/ha): 20%; Growth controlling degree (%) Soyabean (soybean; active ingredient 2000 g/ha): 0%; Growth controlling degree (%) Crabgrass (crabgrass; active ingredient 2000 g/ha): 70%

Reference: patent US20050239656A1, “Pyridine compounds or salts thereof and herbicides containing the same” (priority 2002, published 2005)
